Experimental findings from PubChem BioAssay (NCI) are described below.

Molecules are shown by their SMILES.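 Each compound was tested at five concentrations against cells in 96-well plates for 48 hours. The concentration for 50% growth inhibition is given as GI50. The concentration for full growth arrest is given as TGI.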 A value given as a limit tells only on which side of the number the result lay.

The test system of this experiment is MDA-MB-468 breast. Description: NCI anticancer screen, dose series, 48 h.
For the molecule `O=C1CC(=O)OC(c2ccc([N+](=O)[O-])cc2)O1`, the GI50 was 1.67 µM and the TGI was found to be 3.48 µM. As to `COC(=O)CCCCCN=Cc1c(O)c(O)c(C(C)C)c2cc(C)c(-c3c(C)cc4c(C(C)C)c(O)c(O)c(C=NCCCCCC(=O)OC)c4c3O)c(O)c12`, the GI50 is 1.97 µM and the TGI is 12.9 µM. As to `Cn1cc(CNCC2CCN(c3ncc(C(=O)NO)cn3)CC2)c2ccccc21`, the GI50 is less than 0.01 µM and the TGI is 0.476 µM. On the same counts, the results for `CC1=C2C(=O)[C@](C)(CO)C=C2C(=O)[C@](C)(O)C12CC2` are 1.52 µM and 3.16 µM. On the same counts, the results for `CC(=O)Nc1ccc(NC(=O)Nc2cccc(-c3nc(-c4ccc(NC(=O)c5cccs5)cc4Cl)no3)c2)cc1C(F)(F)F` are 0.449 µM and 1.73 µM. On the same counts, the results for `CCC(c1cccc(O)c1)C(CC)c1cccc(O)c1` (stereo not given) are 0.028 µM and 4.37 µM.

`COc1ccc(C2CC(n3nnnc3-c3ccccc3)=NN2)cc1` (stereo not given): the GI50 was 3.98 µM and the TGI is 47.6 µM. On the same counts, the results for `COc1ccc(-c2cn[nH]c2-c2cc(OC)c3c(c2)OCCO3)cc1` are 0.115 µM and 2.76 µM. On the same counts, the results for `Cc1cc(N/N=C/c2nc(-c3ccc(Cl)cc3)oc2C)c2cc(Cl)ccc2n1` are 1.78 µM and 3.55 µM. On the same counts, the results for `CSc1ccc(/C=C2\C=C(CC(=O)NCc3ccc(C(=O)c4ccccc4)cc3)c3cc(F)ccc32)cc1` are 0.0199 µM and 7.4 µM. `CCN(CCNc1ccc(C)c2sc3ccccc3c(=O)c12)CC(C)(C)O`: the GI50 was 1.74 µM and the TGI worked out at 5.03 µM. On the same counts, the results for `CN(C)C(=O)O[C@@H]1CN[C@@H](C#Cc2cc3ncnc(Nc4ccc(OCc5cccc(F)c5)c(Cl)c4)c3s2)C1` are 1.74 µM and 12.7 µM. On the same counts, the results for `O=C1CCCN1CC#CCN1CCCC1` are more than 100 µM and more than 100 µM. On the same counts, the results for `Cc1cc(-c2nnc3n2CCCCC3)c(C)n1-c1ccc(Cl)c(Cl)c1` are 2.66 µM and 14 µM.

As for `CNC(=O)c1cc(-n2ccc3cc(NC(=O)Nc4ccc(N5CCOCC5)c(C(F)(F)F)c4)ccc32)ccn1`, the GI50 is 12.8 µM and the TGI was more than 33.3 µM.

`CCN(CC)CCCC(C)Nc1c2ccc(C)cc2nc2ccc(OC)cc12` (stereo not given): the GI50 is 1.28 µM and the TGI is 2.84 µM. On the same counts, the results for `CCC(C)[C@H]1OC(=O)[C@H](C(C)C)N(C)C(=O)[C@@H](C(C)C)OC(=O)[C@H](C(C)C)N(C)C(=O)[C@@H](C(C)CC)OC(=O)[C@H](C(C)C)N(C)C1=O` (stereo not given in full) are 0.44 µM and 1.35 µM. For the molecule `COC(=O)CCC1=C(C)/C(=C/c2[nH]c(-c3ccc[nH]3)cc2OC)N=C1C`, the GI50 is 1.14 µM and the TGI came out at 3.18 µM. On the same counts, the results for `CCn1c2ccc(/C=N/OCCCN(C)C)cc2c2cc(/C=N/OCCCN(C)C)ccc21` are 1.38 µM and 3.05 µM. On the same counts, the results for `C/C(=N\NC(N)=S)c1nc2ccc(Cl)cc2[nH]1` are 1.97 µM and 19.1 µM.

Consider `NC(=O)c1ccc(C2C3=C(CCCC3=O)OC3=C2C(=O)c2ccccc2C3=O)cc1` (stereo not given), for which the GI50 is 0.201 µM and the TGI was found to be 0.649 µM. On the same counts, the results for `COc1ccc(CN2c3ccccc3CCc3ccccc32)cc1F` are 0.399 µM and more than 100 µM.

Turning to `CCOc1c(Cl)cc(CNC(C)C(O)c2ccccc2)cc1OC` (stereo not given), the GI50 is 16.7 µM and the TGI is 33.2 µM.

As for `COc1ccc(C(=O)N2c3ccccc3Sc3ccccc32)c(C(F)(F)F)c1`, the GI50 was 0.364 µM and the TGI worked out at 41.5 µM. On the same counts, the results for `N#C[C@@H]1C(n2ccc(N)nc2=O)O[C@H](CO)[C@H]1O` (stereo not given in full) are more than 73.1 µM and more than 100 µM. On the same counts, the results for `CCCCCCN(CCCCCC)CC(O)c1ccc2c3c(cccc13)CC2` (stereo not given) are 3.43 µM and 14.4 µM. On the same counts, the results for `Cc1c2ccc(N(C)c3ccnc(Nc4cccc(S(N)(=O)=O)c4)n3)cc2nn1C` are 8.21 µM and more than 23.5 µM.

For the molecule `COc1cc2nc(-c3ccc(C(F)(F)F)cc3)cc(OCCCN3CCCCC3)c2cc1OC`, the GI50 is 1.03 µM and the TGI was 3.29 µM. On the same counts, the results for `COc1cc(S(C)(=O)=O)ccc1Nc1nc2ccc(-c3ccc(NC(=O)[C@H](C)c4ccc(F)cc4)cc3)cn2n1` are 68.6 µM and more than 100 µM. Take `COc1cc(Cn2c(-c3nonc3N)nc3ccccc32)ccc1C`: the GI50 is 0.228 µM. Consider `Cc1ccc(NC(=O)Cn2c(Br)nc3c2c(=O)n(C)c(=O)n3C)cc1`, for which the GI50 was 10.1 µM and the TGI was 23.2 µM. On the same counts, the results for `CC(C)[C@H]1C(=O)N[C@@H](CCCN=C(N)N)C(=O)NCC(=O)N[C@@H](CC(=O)O)C(=O)N[C@H](Cc2ccccc2)C(=O)N1C` are 0.403 µM and 2.18 µM. As for `C=C(C)C(=O)O[C@H]1C[C@@]2(C)OC(=CC2=O)/C(C)=C\[C@H]2OC(=O)C(=C)[C@H]12`, the GI50 is 0.622 µM and the TGI is 1.56 µM.
